This is an account of results in US20080234262A1 (Wyeth, priority 2007, published 2008).

As a reminder, the IC50 is the concentration that inhibits the measured activity by half. Low values mean higher potency, high ones lower potency.

The test system of the first test is breast line MDA468. The experiment in a line: In vitro cell culture growth assay (MTS), MDA468. Conditions: Homo sapiens, 72 h, MDA468 cells, three days after drug treatment. In kind it is cell-based, human. As for the experimental part:
Human tumor cell lines used include prostate lines LNCap and PC3MM2, breast lines MDA468, MCF7, renal line HTB44 (A498), colon line HCT116, and ovarian line OVCAR3. Cells were plated in 96-well culture plates. One day following plating, the inhibitors were added to cells. Three days after drug treatment, viable cell densities were determined by metabolic conversion (by viable cells) of the dye MTS, a well established cell proliferation assay. The assays were performed using an assay kit purchased from Promega Corp. (Madison, Wis.) following the protocol supplied with the kit. The MTS assay results were read in a 96-well plate reader by measuring absorbance at 490 nm. The effect of each treatment was calculated as percent of control growth relative to the vehicle-treated cells grown in the same culture plate.
On to `CN1CCC(NC(=O)Nc2ccc(-c3nc(N4CCOCC4)c4cnn(C5CCN(Cc6ccccc6)CC5)c4n3)cc2)CC1` [Compound 272], for which the midpoint of inhibition, the IC50, lay at 1200 nM.

For the molecule `CONC(=O)Nc1ccc(-c2nc(N3CCOCC3)c3cnn(C4CCN(Cc5ccccc5)CC4)c3n2)cc1` [Compound 286, 1-{4-[1-(1-benzylpiperidin-4-yl)-4-morpholin-4-yl-1H-pyrazolo[3,4-d]pyrimidin-6-yl]phenyl}-3-methoxyurea], the IC50 is 200 nM.

As to `CN(C)NC(=O)Nc1ccc(-c2nc(N3CCOCC3)c3cnn(C4CCN(Cc5ccccc5)CC4)c3n2)cc1` [Compound 290, N-{4-[1-(1-benzylpiperidin-4-yl)-4-morpholin-4-yl-1H-pyrazolo[3,4-d]pyrimidin-6-yl]phenyl}-2,2-dimethylhydrazinecarboxamide], the IC50 is 8000 nM.

Take `CNC(=O)Cc1ccc(-c2nc(N3CCOCC3)c3cnn(C4CCN(Cc5ccccc5)CC4)c3n2)cc1` [Compound 371, 2-{4-[1-(1-benzylpiperidin-4-yl)-4-morpholin-4-yl-1H-pyrazolo[3,4-d]pyrimidin-6-yl]phenyl}-N-methylacetamide]: half-maximal inhibition (IC50) required 10000 nM.

In the case of `CCNC(=O)Nc1ccc(-c2nc(N3CCOCC3)c3cnn(C4CCN(Cc5ccccc5)CC4)c3n2)cc1` [Compound 499, 1-{4-[1-(1-benzylpiperidin-4-yl)-4-morpholin-4-yl-1H-pyrazolo[3,4-d]pyrimidin-6-yl]phenyl}-3-ethylurea], the IC50 is 350 nM.

Regarding `O=C(Nc1ccccc1)Nc1ccc(-c2nc(N3CCOCC3)c3cnn(C4CCN(Cc5ccccc5)CC4)c3n2)cc1` [Compound 503, 1-{4-[1-(1-benzylpiperidin-4-yl)-4-morpholin-4-yl-1H-pyrazolo[3,4-d]pyrimidin-6-yl]phenyl}-3-phenylurea], the IC50 turned out to be 1050 nM.

`O=C(NCCO)Nc1ccc(-c2nc(N3CCOCC3)c3cnn(C4CCN(Cc5ccccc5)CC4)c3n2)cc1` [Compound 510, 1-{4-[1-(1-benzylpiperidin-4-yl)-4-morpholin-4-yl-1H-pyrazolo[3,4-d]pyrimidin-6-yl]phenyl}-3-(2-hydroxyethyl)urea] displayed an IC50 of 50 nM.

In the case of `CN(C)CCNC(=O)Nc1ccc(-c2nc(N3CCOCC3)c3cnn(C4CCN(Cc5ccccc5)CC4)c3n2)cc1` [Compound 513, 1-{4-[1-(1-benzylpiperidin-4-yl)-4-morpholin-4-yl-1H-pyrazolo[3,4-d]pyrimidin-6-yl]phenyl}-3-[2-(dimethylamino)ethyl]urea], the IC50 was found to be 600 nM.

In the case of `CN1CCC(NC(=O)Nc2ccc(-c3nc(N4CCOCC4)c4cnn(C5CCN(Cc6ccccc6)CC5)c4n3)cc2)CC1` [Compound 517, 1-{4-[1-(1-benzylpiperidin-4-yl)-4-morpholin-4-yl-1H-pyrazolo[3,4-d]pyrimidin-6-yl]phenyl}-3-(1-methylpiperidin-4-yl)urea], the IC50 turned out to be 1200 nM.

For the molecule `CONC(=O)Nc1ccc(-c2nc(N3CCOCC3)c3cnn(C4CCN(Cc5ccccc5)CC4)c3n2)cc1` [Compound 532, 1-{4-[1-(1-benzylpiperidin-4-yl)-4-morpholin-4-yl-1H-pyrazolo[3,4-d]pyrimidin-6-yl]phenyl}-3-methoxyurea], the midpoint of inhibition, the IC50, lay at 160 nM.

With `O=C(NCCF)Nc1ccc(-c2nc(N3CCOCC3)c3cnn(C4CCN(Cc5ccccc5)CC4)c3n2)cc1` [Compound 534, 1-{4-[1-(1-benzylpiperidin-4-yl)-4-morpholin-4-yl-1H-pyrazolo[3,4-d]pyrimidin-6-yl]phenyl}-3-(2-fluoroethyl)urea], the IC50 stood at 27.4 nM.

Consider `CN(C)NC(=O)Nc1ccc(-c2nc(N3CCOCC3)c3cnn(C4CCN(Cc5ccccc5)CC4)c3n2)cc1` [Compound 536, N-{4-[1-(1-benzylpiperidin-4-yl)-4-morpholin-4-yl-1H-pyrazolo[3,4-d]pyrimidin-6-yl]phenyl}-2,2-dimethylhydrazinecarboxamide], for which half-maximal inhibition (IC50) was put at 8000 nM.

The molecule `O=C(Nc1ccc(-c2nc(N3CCOCC3)c3cnn(C4CCN(Cc5ccccc5)CC4)c3n2)cc1)NC1CC1` [Compound 556, 1-{4-[1-(1-benzylpiperidin-4-yl)-4-morpholin-4-yl-1H-pyrazolo[3,4-d]pyrimidin-6-yl]phenyl}-3-cyclopropylurea] displayed an IC50 of 1050 nM.

Regarding `O=C(Nc1ccc(-c2nc(N3CCOCC3)c3cnn(C4CCN(Cc5ccccc5)CC4)c3n2)cc1)Nc1ncc[nH]1` [Compound 570, 1-{4-[1-(1-benzylpiperidin-4-yl)-4-morpholin-4-yl-1H-pyrazolo[3,4-d]pyrimidin-6-yl]phenyl}-3-(1H-imidazol-2-yl)urea], 3500 nM corresponded to half-maximal inhibition (IC50).

With `CNC(=O)Cc1ccc(-c2nc(N3CCOCC3)c3cnn(C4CCN(Cc5ccccc5)CC4)c3n2)cc1` [Compound 616, 2-{4-[1-(1-benzylpiperidin-4-yl)-4-morpholin-4-yl-1H-pyrazolo[3,4-d]pyrimidin-6-yl]phenyl}-N-methylacetamide], the midpoint of inhibition, the IC50, lay at 10000 nM.

With `CNC(=O)Nc1ccc(-c2nc(N3CCOCC3)c3cnn(C4CCN(C(=O)OC)CC4)c3n2)cc1` [Compound 721, methyl 4-(6-{4-[(methylcarbamoyl)amino]phenyl}-4-morpholin-4-yl-1H-pyrazolo[3,4-d]pyrimidin-1-yl)piperidine-1-carboxylate], the IC50 amounted to 80 nM.

For the molecule `COC(=O)N1CCC(n2ncc3c(N4CCOCC4)nc(-c4ccc(NC(=O)NCCF)cc4)nc32)CC1` [Compound 732, methyl 4-[6-(4-{[(2-fluoroethyl)carbamoyl]amino}phenyl)-4-morpholin-4-yl-1H-pyrazolo[3,4-d]pyrimidin-1-yl]piperidine-1-carboxylate], the IC50 worked out at 90 nM.

As to `COC(=O)N1CCC(n2ncc3c(N4CCOCC4)nc(-c4ccc(NC(=O)NC5CC5)cc4)nc32)CC1` [Compound 734, methyl 4-(6-{4-[(cyclopropylcarbamoyl)amino]phenyl}-4-morpholin-4-yl-1H-pyrazolo[3,4-d]pyrimidin-1-yl)piperidine-1-carboxylate], the IC50 stood at 150 nM.

In turn, `COC(=O)N1CCC(n2ncc3c(N4CCOCC4)nc(-c4ccc(NC(=O)Nc5ccccc5)cc4)nc32)CC1` [Compound 735, methyl 4-(6-{4-[(anilinocarbonyl)amino]phenyl}-4-morpholin-4-yl-1H-pyrazolo[3,4-d]pyrimidin-1-yl)piperidine-1-carboxylate] displayed an IC50 of 80 nM.

Staying with this test, now noted: MDA468 cells, three days after drug treatment.
`CNC(=O)Nc1ccc(-c2nc(N3CCOCC3)c3cnn(C4CCN(C(=O)OC(C)(C)C)CC4)c3n2)cc1` [Compound 582, tert-butyl 4-(6-{4-[(methylcarbamoyl)amino]phenyl}-4-morpholin-4-yl-1H-pyrazolo[3,4-d]pyrimidin-1-yl)piperidine-1-carboxylate] returned an IC50 of 210 nM.

`CNC(=O)Nc1ccc(-c2nc(N3CCOCC3)c3cnn(C4CCN(C(=O)OC(C)(C)C)CC4)c3n2)cc1` [Compound 583, tert-butyl 4-(6-{4-[(methylcarbamoyl)amino]phenyl}-4-morpholin-4-yl-1H-pyrazolo[3,4-d]pyrimidin-1-yl)piperidine-1-carboxylate] gave an IC50 of 450 nM.

Consider `CNC(=O)Nc1ccc(-c2nc(N3CCOCC3)c3cnn(C4CCN(C(=O)OC)CC4)c3n2)cc1` [Compound 720, methyl 4-(6-{4-[(methylcarbamoyl)amino]phenyl}-4-morpholin-4-yl-1H-pyrazolo[3,4-d]pyrimidin-1-yl)piperidine-1-carboxylate], for which the IC50 worked out at 95 nM.
